Each structure is given as a SMILES string. Where “and” joins values, the source holds several entries; their conditions need not be identical. Equal entries are not always repeated. Inconclusive results and toxic doses are left out.

This test relates to P388 leukemia ip, CD2F1 mice, survival T/C. Description: NCI In Vivo Anticancer Drug Screen. Data for tumor model P388 Leukemia (intraperitoneal) in CD2F1 (CDF1) mice. As to conditions: endpoint: median survival time, higher = longer survival. The method, boiled down:
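Mice carrying the transplanted tumor received test compound or vehicle. Survival was recorded in each group, and the value is the treated-group measurement divided by that of the vehicle-treated control group.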

[1] abbreviates: dose: 25.0 mg/kg/injection, schedule: Q01DX009 (ip), vehicle: saline.
[2] abbreviates: dose: 50.0 mg/kg/injection, schedule: Q01DX009 (ip), vehicle: saline.
Where [3] appears, read: dose: 100.0 mg/kg/injection, schedule: Q01DX009 (ip), vehicle: saline.
The mark [4] stands for this setting: dose: 200.0 mg/kg/injection, schedule: Q01DX009 (ip), vehicle: saline.
Where [5] appears, read: dose: 50.0 mg/kg/injection, schedule: Q01DX005 (ip), vehicle: Klucel (hydroxypropylcellulose) (HPC).
[6] abbreviates: dose: 100.0 mg/kg/injection, schedule: Q01DX005 (ip), vehicle: Klucel (hydroxypropylcellulose) (HPC).
The mark [7] stands for this setting: dose: 200.0 mg/kg/injection, schedule: Q01DX005 (ip), vehicle: Klucel (hydroxypropylcellulose) (HPC).
[8] abbreviates: dose: 50.0 mg/kg/injection, schedule: Q01DX009 (ip), vehicle: Klucel (hydroxypropylcellulose) (HPC).
The mark [9] stands for this setting: dose: 100.0 mg/kg/injection, schedule: Q01DX009 (ip), vehicle: Klucel (hydroxypropylcellulose) (HPC).
Where [10] appears, read: dose: 200.0 mg/kg/injection, schedule: Q01DX009 (ip), vehicle: Klucel (hydroxypropylcellulose) (HPC).
[11] abbreviates: dose: 50.0 mg/kg/injection, schedule: Q01DX009 (ip), vehicle: saline with Tween-80.
The mark [12] stands for this setting: dose: 100.0 mg/kg/injection, schedule: Q01DX009 (ip), vehicle: saline with Tween-80.
Where [13] appears, read: dose: 100.0 mg/kg/injection, schedule: Q04DX003 (ip), vehicle: saline with Tween-80.
[14] abbreviates: dose: 200.0 mg/kg/injection, schedule: Q01DX009 (ip), vehicle: saline with Tween-80.
The mark [15] stands for this setting: dose: 200.0 mg/kg/injection, schedule: Q04DX003 (ip), vehicle: saline with Tween-80.
Where [16] appears, read: dose: 25.0 mg/kg/injection, schedule: Q01DX005 (ip), vehicle: Klucel (hydroxypropylcellulose) (HPC).

Regarding `O=S(=O)(O)O.[Co+3].[Co+3].[NH2-].[NH2-].[NH2-].[NH2-].[NH2-].[NH2-].[NH2-].[NH2-].[NH2-].[NH2-].[O-][O-]`, the T/C under setting [1] is 96 % of control.
Regarding `O=S(=O)(OCC(O)C1OCC(O)C1O)c1ccccc1` (stereo not drawn), the T/C reads like this: under setting [2], 98 % of control; under setting [3], 100 % of control; under setting [4], 105 % of control.
Take `O=c1cc(O)nc2nc(-c3ccccc3)c(-c3ccccc3)nn12`: the T/C is 101 % of control under setting [5], 93 % of control under setting [6] and 93 % of control under setting [7].
As for `Clc1ccc(-c2cc3cc4c(cc3[nH]2)Sc2ccccc2O4)cc1`, the T/C was 86 % of control (dose: 100.0 mg/kg/injection, schedule: Q04DX003 (ip), vehicle: saline); 86 % of control (dose: 200.0 mg/kg/injection, schedule: Q04DX003 (ip), vehicle: saline); 98 % of control (dose: 400.0 mg/kg/injection, schedule: Q04DX003 (ip), vehicle: saline).
On to `BrC1CCC(OCc2ccccc2)C(OCc2ccccc2)C1` (stereo not drawn), for which the T/C reads like this: under setting [8], 100 % of control; under setting [9], 98 % of control; under setting [10], 97 % of control.
As for `CCCOC(=O)c1ccccc1OP(=O)(N(C)C)N(C)C`, the T/C reads like this: (dose: 50.0 mg/kg/injection, schedule: Q01DX005 (ip), vehicle: saline) 93 % of control; (dose: 100.0 mg/kg/injection, schedule: Q01DX005 (ip), vehicle: saline) 98 % of control; (dose: 200.0 mg/kg/injection, schedule: Q01DX005 (ip), vehicle: saline) 108 % of control.
`CCCCNC(=O)OCC1=C(COC(=O)NCCCC)C2OC1C(C(=O)OC)=C2C(=O)OC`: the T/C by setting is: (dose: 3.13 mg/kg/injection, schedule: Q01DX009 (ip), vehicle: distilled water + Tween-80) 109 % of control; (dose: 6.25 mg/kg/injection, schedule: Q01DX009 (ip), vehicle: distilled water + Tween-80) 101 % of control and 108 % of control and 113 % of control; (dose: 50.0 mg/kg/injection, schedule: Q01DX009 (ip), vehicle: distilled water + Tween-80) 104 % of control and 108 % of control; (dose: 100.0 mg/kg/injection, schedule: Q01DX009 (ip), vehicle: distilled water + Tween-80) 95 % of control.
Take `COc1ccc(-c2c(CC(=O)O)c3cc(OC)ccc3n2Cc2ccc(Cl)cc2)cc1`: the T/C is 101 % of control under setting [11]; 100 % of control under setting [12]; 90 % of control under setting [13]; 100 % of control under setting [14]; 90 % of control under setting [15]; 91 % of control (dose: 400.0 mg/kg/injection, schedule: Q01DX009 (ip), vehicle: saline with Tween-80). The T/C (dose: 400.0 mg/kg/injection, schedule: Q04DX003 (ip), vehicle: saline with Tween-80) is 90 % of control.
As for `CCOC(=O)C(C(=O)OCC)c1ccccn1`, the T/C by setting is: under setting [11], 98 % of control; under setting [12], 107 % of control; under setting [14], 108 % of control.
Turning to `Cc1ccc(C(=Nc2ccccc2)N=S(c2ccccc2)c2ccccc2)cc1`, the T/C was 97 % of control (dose: 50.0 mg/kg/injection, schedule: Q04DX003 (ip), vehicle: saline with Tween-80); 92 % of control under setting [13]; 97 % of control under setting [15].
`NC(=S)c1cccc(/C=N/n2cnnc2)c1`: the T/C was 97 % of control (dose: 100.0 mg/kg/injection, schedule: Q04DX003 (ip), vehicle: Klucel (hydroxypropylcellulose) (HPC)); 93 % of control (dose: 200.0 mg/kg/injection, schedule: Q04DX003 (ip), vehicle: Klucel (hydroxypropylcellulose) (HPC)); 90 % of control (dose: 400.0 mg/kg/injection, schedule: Q04DX003 (ip), vehicle: Klucel (hydroxypropylcellulose) (HPC)).
Take `[Se]=P(c1ccccc1)(N1CCOCC1)N1CCOCC1`: the T/C reads like this: (dose: 13.75 mg/kg/injection, schedule: Q01DX001 (ip), vehicle: Klucel (hydroxypropylcellulose) (HPC)) 96 % of control; (dose: 27.5 mg/kg/injection, schedule: Q01DX001 (ip), vehicle: Klucel (hydroxypropylcellulose) (HPC)) 112 % of control.
For `Nc1cc(=O)c2[nH]cnc2[nH]1`, the T/C is 103 % of control (dose: 12.5 mg/kg/injection, schedule: Q01DX009 (ip), vehicle: saline); 90 % of control under setting [1]; 101 % of control (dose: 50.0 mg/kg/injection, schedule: Q01DX005 (ip), vehicle: saline with Tween-80); 98 % of control and 101 % of control under setting [2]; 106 % of control (dose: 100.0 mg/kg/injection, schedule: Q01DX005 (ip), vehicle: saline with Tween-80); 103 % of control under setting [3]. In addition, the T/C is, setting by setting: (dose: 200.0 mg/kg/injection, schedule: Q01DX005 (ip), vehicle: saline with Tween-80) 107 % of control; under setting [4], 88 % of control.
`O=C1C=CC(=O)c2cc(Cl)c(Cl)cc21`: the T/C (dose: 4.12 mg/kg/injection, schedule: Q01DX009 (ip), vehicle: saline with Tween-80) was 109 % of control; the T/C (dose: 6.25 mg/kg/injection, schedule: Q01DX009 (ip), vehicle: saline with Tween-80) was 113 % of control; the T/C (dose: 6.25 mg/kg/injection, schedule: Q04DX003 (ip), vehicle: saline with Tween-80) is 91 % of control; the T/C (dose: 12.5 mg/kg/injection, schedule: Q04DX003 (ip), vehicle: saline with Tween-80) was 91 % of control.
For the molecule `CC(C)OC(=O)C#N`, the T/C runs as follows: (dose: 1.56 mg/kg/injection, schedule: Q01DX005 (ip), vehicle: saline with Tween-80) 100 % of control; (dose: 3.12 mg/kg/injection, schedule: Q01DX005 (ip), vehicle: saline with Tween-80) 101 % of control; (dose: 6.25 mg/kg/injection, schedule: Q01DX005 (ip), vehicle: saline with Tween-80) 100 % of control; (dose: 12.5 mg/kg/injection, schedule: Q01DX005 (ip), vehicle: saline with Tween-80) 98 % of control.
As to `CN1/C(=C/C(=S)SCC(=O)c2ccccc2)C=Cc2ccccc21`, the T/C runs as follows: (dose: 50.0 mg/kg/injection, schedule: Q04DX002 (ip), vehicle: saline with Tween-80) 94 % of control; (dose: 100.0 mg/kg/injection, schedule: Q04DX002 (ip), vehicle: saline with Tween-80) 90 % of control; (dose: 200.0 mg/kg/injection, schedule: Q04DX002 (ip), vehicle: saline with Tween-80) 88 % of control.
For `COc1cccc2c1C(=O)c1c(O)c3c(c(O)c1C2=O)C[C@@](O)(c1csc(N2CCN(C)CC2)n1)C[C@@H]3OC1CC(N)C(O)C(C)O1` (stereo partly drawn), the T/C is 113 % of control (dose: 0.39 mg/kg/injection, schedule: Q01DX009 (ip), vehicle: water); 122 % of control (dose: 0.78 mg/kg/injection, schedule: Q01DX009 (ip), vehicle: water); 155 % of control (dose: 1.56 mg/kg/injection, schedule: Q01DX009 (ip), vehicle: water); 158 % of control (dose: 3.13 mg/kg/injection, schedule: Q01DX009 (ip), vehicle: water); 122 % of control (dose: 12.5 mg/kg/injection, schedule: Q01DX009 (ip), vehicle: water).
Turning to `CC1CCC2=C(C1)c1ccc(O)cc1OC2(C)C` (stereo not drawn), the T/C under setting [5] was 100 % of control, the T/C under setting [6] is 96 % of control and the T/C under setting [7] was 93 % of control.
As to `CC(Cl)CN(CC(C)Cl)C(=O)Oc1ccc(CC(N)C(=O)O)cc1` (stereo not drawn), the T/C reads like this: under setting [8], 91 % of control; under setting [9], 89 % of control; under setting [10], 97 % of control.
As for `CC1(C)C(=O)NC(=O)c2ccccc21`, the T/C reads like this: (dose: 12.5 mg/kg/injection, schedule: Q01DX005 (ip), vehicle: Klucel (hydroxypropylcellulose) (HPC)) 107 % of control; under setting [16], 107 % of control; under setting [5], 100 % of control and 102 % of control.
Consider `Cc1cc(N)c2ccccc2c1O`, for which the T/C was 110 % of control (dose: 12.5 mg/kg/injection, schedule: Q01DX009 (ip), vehicle: saline with Tween-80); 124 % of control (dose: 25.0 mg/kg/injection, schedule: Q01DX009 (ip), vehicle: saline with Tween-80); 108 % of control under setting [11].
In the case of `COc1c(O)ccc(C2=Cc3ccc(O)cc3OC2)c1OC`, the T/C under setting [16] is 99 % of control, the T/C under setting [5] was 98 % of control, the T/C under setting [6] is 109 % of control and the T/C under setting [7] was 106 % of control.

The record behind these values is PubChem BioAssay AID330 (DTP/NCI, 2004).
